Measurements taken from ChEMBL document CHEMBL3228023, “Paradoxical effects of N-cyanoalkyl substituents upon the activities of several classes of opioids” (J Med Chem, 1979).
Counter-ions that a name gives are not always drawn. Activity calls are given as the source filed them. The calls are words filed in the database; no cut-off is given here.

Legend:
Rhesus monkey [1] = test: Acute toxicity in rhesus monkey assessed as minimal CNS depression at 1.5 to 12 mg/kg by single-dose suppression test; format: organism-based, Macaca mulatta, Central nervous system; set-up: dose 1.5-12 mg/kg; details: in vivo
Mus musculus [2] = test: Antinociceptive activity in mouse at 100 mg/kg, sc by Eddy-hot plate assay; format: functional, organism-based; set-up: dose 100 mg/kg
[3] = Binding affinity to opiate receptor in mouse/rat NG108-15 hybrid cells
Rhesus monkey [4] = test: Acute toxicity in rhesus monkey assessed as minimal CNS depression at 1.5 to 36 mg/kg by single-dose suppression test; format: organism-based, Macaca mulatta, Central nervous system; set-up: dose 1.5-36 mg/kg; details: in vivo
Mus musculus [5] = test: Antinociceptive activity in sc dosed mouse by Nilsen assay; format: functional
Rhesus monkey [6] = test: Narcotic antagonist activity in rhesus monkey […]; format: organism-based, Macaca mulatta; details: in vivo
Rhesus monkey [7] = test: Acute toxicity in rhesus monkey assessed as tremors at 36 mg/kg by single-dose suppression test; format: organism-based, Macaca mulatta; set-up: dose 36 mg/kg; details: in vivo
Opioid receptor = Opioid receptor (Rattus norvegicus, UniProt P33533+P34975+P33535); test: Binding affinity to opiate receptor in rat brain homogenates; format: tissue-based
Mus musculus [8] = test: Antinociceptive activity in sc dosed mouse by Eddy-hot plate assay; format: functional
[9] = Therapeutic ratio of LD50 for sc dosed mouse to ED50 for antinociceptive activity in sc dosed mouse by Eddy-hot plate assay; details: in vivo
Rhesus monkey [10] = test: Acute toxicity in rhesus monkey assessed as exacerbation of withdrawal at 0.005 to 0.04 mg/kg by single-dose suppression test; format: organism-based, Macaca mulatta; set-up: dose 0.005-0.04 mg/kg; details: in vivo
Rhesus monkey [11] = test: Acute toxicity in rhesus monkey assessed as salivation at 0.005 to 0.02 mg/kg by single-dose suppression test; format: organism-based, Macaca mulatta; set-up: dose 0.005-0.02 mg/kg; details: in vivo
Mus musculus [12] = test: Ratio of morphine ED50 to compound ED50 for antinociceptive activity in sc dosed mouse by Nilsen assay; format: functional
Mus musculus [13] = test: Ratio of morphine ED50 to compound ED50 for antinociceptive activity in sc dosed mouse by Eddy-hot plate assay; format: functional
Rhesus monkey [14] = test: Acute toxicity in rhesus monkey assessed as CNS depression at 0.625 to 5 mg/kg by single-dose suppression test; format: organism-based, Macaca mulatta, Central nervous system; set-up: dose 0.625-5 mg/kg; details: in vivo
Rhesus monkey [15] = test: Acute toxicity in rhesus monkey assessed as CNS depression at 0.625 to 5 mg/kg by single-dose suppression test in presence of naloxone; format: organism-based, Macaca mulatta, Central nervous system; set-up: dose 0.625-5 mg/kg; details: in vivo
[16] = Acute toxicity in sc dosed mouse; format: organism-based; details: in vivo
Rhesus monkey [17] = test: Acute toxicity in rhesus monkey assessed as salivation at 0.25 to 2 mg/kg by single-dose suppression test; format: organism-based, Macaca mulatta; set-up: dose 0.25-2 mg/kg; details: in vivo
Rhesus monkey [18] = test: Acute toxicity in rhesus monkey assessed as head tremors, covulsiona, ataxia at 2 mg/kg by single-dose suppression test; format: organism-based, Macaca mulatta; set-up: dose 2 mg/kg; details: in vivo
Rhesus monkey [19] = test: Acute toxicity in rhesus monkey assessed as withdrawal signs at 24 to 96 mg/kg by precipitated withdrawal test; format: organism-based, Macaca mulatta; set-up: dose 24-96 mg/kg; details: in vivo
Rhesus monkey [20] = test: Acute toxicity in rhesus monkey assessed as withdrawal signs at 96 mg/kg by single-dose suppression test; format: organism-based, Macaca mulatta; set-up: dose 96 mg/kg; details: in vivo
Rhesus monkey [21] = test: Narcotic antagonist activity in rhesus monkey at 0.32 to 1.28 mg/kg by precipitated withdrawal test; format: organism-based, Macaca mulatta; set-up: dose 0.32-1.28 mg/kg; details: in vivo
Rhesus monkey [22] = test: Acute toxicity in rhesus monkey assessed as rigidity at 2.56 mg/kg by single-dose suppression test; format: organism-based, Macaca mulatta; set-up: dose 2.56 mg/kg; details: in vivo
Rhesus monkey [23] = test: Acute toxicity in rhesus monkey assessed as ataxia at 0.32 to 2.56 mg/kg by single-dose suppression test; format: organism-based, Macaca mulatta; set-up: dose 0.32-2.56 mg/kg; details: in vivo
Rhesus monkey [24] = test: Acute toxicity in rhesus monkey assessed as tremors at 0.64 to 2.56 mg/kg by single-dose suppression test; format: organism-based, Macaca mulatta; set-up: dose 0.64-2.56 mg/kg; details: in vivo
Rhesus monkey [25] = test: Physical dependence capacity in rhesus monkey at 0.16 to 2.56 mg/kg by single-dose suppression test; format: ADME, organism-based, Macaca mulatta; set-up: dose 0.16-2.56 mg/kg; details: in vivo
Mus musculus [26] = test: Antinociceptive activity in Swiss-webster mouse at 1.6 umol/kg, sc by tail-flick assay; format: functional
Rhesus monkey [27] = test: Physical dependence capacity in rhesus monkey at 12 mg/kg by single-dose suppression test; format: ADME, organism-based, Macaca mulatta; set-up: dose 12 mg/kg; details: in vivo
Rhesus monkey [28] = test: Acute toxicity in rhesus monkey at 3 to 12 mg/kg by single-dose suppression test; format: organism-based, Macaca mulatta; set-up: dose 3-12 mg/kg; details: in vivo
Rhesus monkey [29] = test: Acute toxicity in rhesus monkey assessed as ataxia and mild stupor at 1 to 2 mg/kg by single-dose suppression test; format: organism-based, Macaca mulatta; set-up: dose 1-2 mg/kg; details: in vivo
Rhesus monkey [30] = test: Narcotic antagonist activity in rhesus monkey at 1 to 2 mg/kg by precipitated withdrawal test; format: organism-based, Macaca mulatta; set-up: dose 1-2 mg/kg; details: in vivo
Mus musculus [31] = test: Antinociceptive activity in Swiss-webster mouse at 1.6 umol/kg, sc by tail-flick assay in presence of 0.08 to 8.5 umol/kg naloxone; format: functional, organism-based
Mus musculus [32] = test: Antinociceptive activity in sc dosed mouse by Eddy-hot plate assay in presence of naloxone; format: functional, organism-based
Mus musculus [33] = species on record: Mus musculus
Rhesus monkey [34] = test: Acute toxicity in rhesus monkey at 10 to 40 mg/kg by single-dose suppression test; format: organism-based, Macaca mulatta; set-up: dose 10-40 mg/kg; details: in vivo
Mus musculus [35] = test: Antinociceptive activity in mouse at 100 mg/kg, sc by Nilsen assay; format: functional, organism-based; set-up: dose 100 mg/kg
[36] = Mus musculus, sc, read-out: ED50

C[C@H]1C2Cc3ccc(O)cc3C1(C)CCN2CCC#N (single isomer, unassigned; (+)) [listing 1 of 2 here]
Activity (Rhesus monkey [1]): Toxic

N#CCCN1CC[C@]23CCCCC2C1Cc1ccc(O)cc13 (single isomer, unassigned; (+))
Activity (Mus musculus [2]): inactive

N#CCCN1CC[C@]23c4c5ccc(O)c4O[C@H]2[C@@H](O)C=CC3C1C5 (single isomer, unassigned; (-))
EC50 [3]: 1000 nM | Activity (Rhesus monkey [4]): Toxic | ED50 (Mus musculus [5]; [36]): 33 µmol/kg | Activity (Rhesus monkey [6]): Toxic | Activity (Rhesus monkey [7]): Toxic | EC50 (Opioid receptor): 20000 nM | ED50 (Mus musculus [8]; [36]): 8.3 µmol/kg

N#CCCN1CC[C@]23CCCCC2C1Cc1ccc(O)cc13 (single isomer, unassigned; (-))
EC50 [3]: 15 nM | ED50 (Mus musculus [5]; [36]): 0.14 µmol/kg | selectivity ratio [9]: 23000 | Activity (Rhesus monkey [10]): Toxic | EC50 (Opioid receptor): 1500 nM | ED50 (Mus musculus [8]; [36]): 0.07 µmol/kg | Activity (Rhesus monkey [11]): Toxic

C[C@H]1C2Cc3ccc(O)cc3C1(C)CCN2CCC#N (single isomer, unassigned; (+)) [listing 2 of 2 here]
Activity (Mus musculus [2]): inactive

Br.CC1C2Cc3ccc(O)cc3C1(C)CCN2C (single isomer, unassigned; (-))
EC50 [3]: 400 nM | ED50 (Mus musculus [5]; [36]): 1.5 µmol/kg | EC50 (Opioid receptor): 4000 nM | ED50 (Mus musculus [8]; [36]): 2 µmol/kg

Br.C[C@H]1C2Cc3ccc(O)cc3C1(C)CCN2CCC#N (mixture of isomers)
Ratio ED50 (Mus musculus [12]): 12 | Ratio ED50 (Mus musculus [13]): 12

C[C@H]1C2Cc3ccc(O)cc3C1(C)CCN2CC#N (mixture of isomers)
Activity (Rhesus monkey [14]): Toxic | ED50 (Mus musculus [5]; [36]): 39.1 µmol/kg | Activity (Rhesus monkey [15]): Toxic | EC50 (Opioid receptor): 20000 nM | ED50 (Mus musculus [8]; [36]): 22.2 µmol/kg

Br.C[C@H]1C2Cc3ccc(O)cc3C1(C)CCN2CCC#N (single isomer, unassigned; (-))
LD50 [16]: 489 mg/kg

C[C@H]1C2Cc3ccc(O)cc3C1(C)CCN2CCC#N (mixture of isomers)
ED50 (Mus musculus [5]): 0.31 µmol/kg | EC50 (Opioid receptor): 3000 nM | ED50 (Mus musculus [8]): 0.26 µmol/kg | Activity (Rhesus monkey [17]): Toxic | Activity (Rhesus monkey [18]): Toxic

COc1ccc2c3c1O[C@H]1[C@@H](O)C=CC4C(C2)N(CCC#N)CC[C@@]341 (single isomer, unassigned; (-))
Activity (Rhesus monkey [19]): Toxic | Activity (Rhesus monkey [20]): Toxic | EC50 (Opioid receptor): 700000 nM

C[C@H]1C2Cc3ccc(O)cc3C1(C)CCN2CCC#N (single isomer, unassigned; (-))
Activity (Rhesus monkey [21]): Toxic | Activity (Rhesus monkey [22]): Toxic | Activity (Rhesus monkey [23]): Toxic | EC50 [3]: 80 nM | Activity (Rhesus monkey [24]): Toxic | ED50 (Mus musculus [5]): 0.03 µmol/kg | Activity (Rhesus monkey [25]): Non-toxic | selectivity ratio [9]: 13000 | EC50 (Opioid receptor): 3000 nM | ED50 (Mus musculus [8]): 0.11 µmol/kg

Cl.N#CCCN1CC[C@]23CCCCC2C1Cc1ccc(O)cc13.O (stereo partly specified)
Activity (Mus musculus [26]): 100% | LD50 [16]: 534 mg/kg | Ratio ED50 (Mus musculus [13]): 50

COc1ccc2c3c1O[C@H]1[C@@H](O)C=C[C@H]4[C@@H](C2)N(C)CC[C@@]341.COc1ccc2c3c1O[C@H]1[C@@H](O)C=C[C@H]4[C@@H](C2)N(C)CC[C@@]341.O.O=P(O)(O)O.O=P(O)(O)O [CODEINE PHOSPHATE]
ED50 (Mus musculus [5]; [36]): 20.4 µmol/kg | Activity (Rhesus monkey [27]): Toxic | Activity (Rhesus monkey [28]): Toxic | ED50 (Mus musculus [8]; [36]): 14.6 µmol/kg

C[C@H]1C2Cc3ccc(O)cc3C1(C)CCN2CCCC#N (mixture of isomers)
ED50 (Mus musculus [5]; [36]): 1.5 µmol/kg | Activity (Rhesus monkey [29]): Toxic | EC50 (Opioid receptor): 4000 nM | ED50 (Mus musculus [8]; [36]): 2.4 µmol/kg | Activity (Rhesus monkey [30]): Toxic

CN1CC[C@]23c4c5ccc(O)c4O[C@H]2[C@@H](O)C=C[C@H]3[C@H]1C5
EC50 [3]: 1500 nM | ED50 (Mus musculus [5]; [36]): 4.1 µmol/kg | ED50 (Mus musculus [8]; [36]): 3.3 µmol/kg

CN1CC[C@]23CCCC[C@H]2[C@H]1Cc1ccc(O)cc13.O=C(O)C(O)C(O)C(=O)O
EC50 [3]: 200 nM | ED50 (Mus musculus [5]; [36]): 0.54 µmol/kg | EC50 (Opioid receptor): 700 nM | ED50 (Mus musculus [8]; [36]): 0.49 µmol/kg

CN1CC[C@]23c4c5ccc(O)c4O[C@H]2C(=O)CC[C@@]3(O)[C@H]1C5 [OXYMORPHONE HYDROCHLORIDE]
ED50 (Mus musculus [8]; [36]): 0.27 µmol/kg

N#CCCN1CC[C@]23CCCCC2C1Cc1ccc(O)cc13 (stereo partly specified)
Activity (Mus musculus [31]): inactive | Activity (Mus musculus [32]): inactive

COc1ccc2c3c1O[C@H]1C(=O)CC[C@@]4(O)C(C2)N(CCC#N)CC[C@]314 (single isomer, unassigned; (-))
ED50 (Mus musculus [33]): inactive | Activity (Rhesus monkey [34]): Non-toxic | EC50 (Opioid receptor): 60000 nM | Activity (Mus musculus [35]): inactive

N#CCN1CC[C@]23CCCCC2C1Cc1ccc(O)cc13 (single isomer, unassigned; (-))
ED50 (Mus musculus [5]; [36]): 13.2 µmol/kg | EC50 (Opioid receptor): 7000 nM | ED50 (Mus musculus [8]; [36]): 5.3 µmol/kg
